Laboratory results reported in ChEMBL document CHEMBL1155732, “Anti-AIDS agents. 46. Anti-HIV activity of harman, an anti-HIV principle from Symplocos setchuensis, and its derivatives” (J Nat Prod, 2001).

Columns and labels:
[1] = Therapeutic index, ratio of IC50 for human H9 cells to EC50 for HIV1; format: cell-based; conditions: for selectivity ratio: H9 cells, read-out: Ratio IC50/EC50; for Ratio IC50/EC50: h9
[2] = tested on: Human immunodeficiency virus 1; assay: Antiviral activity against HIV1 in human H9 cells assessed as inhibition of viral replication; format: functional, organism-based
H9 = assay: Cytotoxicity against human H9 cells; format: cell-based
[3] = Human immunodeficiency virus 1, H9, read-out: EC50

| SMILES | selectivity ratio [1] | EC50 [2, 3] | IC50 (H9; Homo sapiens, H9) | Ratio IC50/EC50 [1] | EC50 ([2]; h9, read-out: EC50) | IC50 (H9; h9) | EC50 ([2]; h9) |
| --- | --- | --- | --- | --- | --- | --- | --- |
| CCn1c2cc(OC)ccc2c2ccnc(C)c21 | 24.2 | 0.35 µM | 8.5 µM |  |  |  |  |
| Br.COc1cc2[nH]c3c(C)nccc3c2cc1Br |  |  |  | 26.8 | 0.22 µM | 5.9 µM |  |
| COc1ccc2c(c1)[nH]c1c(C)[n+](C)ccc12.[I-] |  | 8.6 µM | 49.6 µM | 5.8 |  |  |  |
| COc1ccc2c(c1)[nH]c1c(/C=C/c3ccc([N+](=O)[O-])cc3)nccc12 |  |  | 15.4 µM |  |  |  | Not Active |
| CCC[n+]1ccc2c([nH]c3cc(OC)ccc32)c1C.[I-] |  | 9.6 µM | 55.4 µM | 5.8 |  |  |  |
| COc1cc2[nH]c3c(C)nccc3c2cc1Br |  |  |  | 5.6 | 13.2 µM | 74 µM |  |
| Cc1nccc2c1[nH]c1cc(OC(C)C)ccc12 |  |  | 86.7 µM |  |  |  | Not Active |
| CCCCCCCCCCCCCCCCOc1ccc2c(c1)[nH]c1c(C)nccc12 |  |  | 42.7 µM |  |  |  | Not Active |
| CCCCCCOc1ccc2c(c1)[nH]c1c(C)nccc12 |  |  | 8.2 µM |  |  |  | Not Active |
| CCOc1ccc2c(c1)[nH]c1c(C)nccc12 |  | 6.5 µM | 25.9 µM | 4 |  |  |  |
| Cc1cc(O)n2c(n1)nc1ccccc12 |  |  | 118 µM |  |  |  | Not Active |
| CCCCCCCCCCOc1ccc2c(c1)[nH]c1c(C)nccc12 |  |  | 5.9 µM |  |  |  | Not Active |
| CC1=NCCc2c1[nH]c1ccccc21 |  | 32 µM | 110 µM | 3.4 |  |  |  |
| CC(=O)Oc1ccc2c(c1)[nH]c1c(C)nccc12 |  | 17.3 µM | 107 µM | 6.2 |  |  |  |
| COc1ccc2c3c([nH]c2c1)C(C)N(N=O)CC3 (stereo not given) | 8 | 7.1 µM | 56.5 µM |  |  |  |  |
| CCCCn1c2cc(OC)ccc2c2ccnc(C)c21 | 210 | 0.037 µM | 7.8 µM |  |  |  |  |
| COc1ccc2c3ccn(C)c(C)c-3nc2c1 |  |  | 70.9 µM | 15.8 |  |  |  |

| SMILES | selectivity ratio [1] | EC50 [2, 3] | IC50 (H9; Homo sapiens, H9) | Ratio IC50/EC50 [1] | EC50 ([2]; h9, read-out: EC50) | IC50 (H9; h9) | EC50 ([2]; h9) |
| --- | --- | --- | --- | --- | --- | --- | --- |
| COS(=O)(=O)O.Cc1nccc2c1[nH]c1ccccc12 |  |  |  | 7.5 | 10.3 µM | 77.5 µM |  |
| COc1ccc2c3ccnc(C)c3n(C)c2c1 | 9.2 | 1.1 µM | 10.1 µM |  |  |  |  |
| Cc1nccc2c1[nH]c1cc(OC(=O)C34CCC(C)(C(=O)O3)C4(C)C)ccc12 (stereo not given) |  |  | 58.9 µM |  |  |  | Not Active |
| CCCn1c2cc(OC)ccc2c2cc[n+](C)c(C)c21.[Br-] |  | 23.8 µM | 53.2 µM | 2.2 |  |  |  |
| Br.CC1=NCCc2c1[nH]c1cc(O)ccc21 |  |  | 97.1 µM |  |  |  | Not Active |
| CCCCCCCCC1NC(C(=O)O)Cc2c1[nH]c1ccccc21 (stereo not given) |  |  | 60.4 µM |  |  |  | Not Active |
| COc1cc(C[C@H]2COC(=O)[C@@H]2Cc2ccc(OC(C)=O)c(OC)c2)ccc1OC(C)=O | 7.1 | 6.9 µM | 49.3 µM |  |  |  |  |
| COc1cc([C@@H]2OC[C@@H]3[C@H]2CO[C@H]3c2ccc(O)c(OC)c2)ccc1O [(+)-PINORESINOL] |  |  | 67 µM |  |  |  | Not Active |
| CC1=NCCc2c1[nH]c1cc(O)ccc21.Cl [HARMALOL HYDROCHLORIDE] |  |  |  |  |  | 87.1 µM | Not Active |
| Cc1nccc2c1[nH]c1ccccc12 [HARMAN] | 10.4 | 10.7 µM | 112 µM |  |  |  |  |
| COc1ccc2c(c1)[nH]c1c(C)nccc12 [HARMINE] |  | 0.52 µM | 26.4 µM | 50.8 |  |  |  |
| Cc1[nH]ccc2c1[nH]c1cc(=O)ccc12 [HARMOL] |  | 11.1 µM | 108 µM | 9.7 |  |  |  |
| COc1cc([C@H]2c3cc(O)c(OC)cc3C[C@@H](CO)[C@@H]2CO)ccc1O [ISOLARICIRESINOL] |  |  | > 277 µM |  |  |  | Not Active |
| COc1cc(C[C@H]2COC(=O)[C@@H]2Cc2ccc(O)c(OC)c2)ccc1O [MATAIRESINOL] | 11 | 2 µM | 21.9 µM |  |  |  |  |
| COc1cc(C[C@H]2COC(=O)[C@@H]2Cc2ccc(O[C@@H]3O[C@H](CO)[C@@H](O)[C@H](O)[C@H]3O)c(OC)c2)ccc1O [MATAIRESINOSIDE] |  |  | > 192 µM |  |  |  | Not Active |
| c1ccc2c(c1)[nH]c1cnccc12 [NORHARMANE] |  | 44.1 µM | 142 µM | 3.2 |  |  |  |
